In patent US20250101041A1, “POSITIVE ALLOSTERIC MODULATORS OF THE MUSCARINIC ACETYLCHOLINE RECEPTOR M4” (Vanderbilt University, priority 2022, published 2025) one finds Emax and EC50 data, which are given here for 20 compounds.

Each structure is given as a SMILES string.

In this experiment the target is T1, human mAChR M4 (Homo sapiens, UniProt P08173).
T1 construct: expressed in transfected cells; host or cells: CHO-K1 (American Type Culture Collection), stably expressing hM4 and Gqi5
T1 sequence (P08173 1-479): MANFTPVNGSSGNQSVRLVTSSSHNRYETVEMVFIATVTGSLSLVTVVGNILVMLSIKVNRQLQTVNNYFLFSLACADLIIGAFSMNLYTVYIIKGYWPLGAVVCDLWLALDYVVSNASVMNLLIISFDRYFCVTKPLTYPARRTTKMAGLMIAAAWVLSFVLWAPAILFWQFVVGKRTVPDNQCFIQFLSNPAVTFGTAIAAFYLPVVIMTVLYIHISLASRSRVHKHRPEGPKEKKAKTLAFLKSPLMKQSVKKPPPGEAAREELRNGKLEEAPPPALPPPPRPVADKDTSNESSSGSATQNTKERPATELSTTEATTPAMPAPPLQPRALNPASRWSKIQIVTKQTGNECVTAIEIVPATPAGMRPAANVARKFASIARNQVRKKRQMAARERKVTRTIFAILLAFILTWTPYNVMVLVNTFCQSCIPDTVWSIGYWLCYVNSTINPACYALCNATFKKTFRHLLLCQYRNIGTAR
Nature of the experiment: mAChR M4 cell-based functional assay: calcium mobilization (Fluo-4, FDSS), potentiation of EC20 acetylcholine response in hM4-Gqi5 CHO-K1 cells. The settings on record: human M4; for Emax at 30 µM: CHO-K1, % ACh maximum at 30 μM; for EC50: potentiation of EC20 acetylcholine response, calcium mobilization. An outline of the steps:
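CHO-K1 cells stably co-expressing human M4 and chimeric Gqi5, loaded with Fluo-4 AM (50 min, 37 °C). Compounds in 11-point 1:3 series added first; EC20 acetylcholine added at 144 s and again at 230 s. Calcium read on FDSS at 1 Hz; EC50 and Emax from four-parameter logistic fit of potentiated EC20 response.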
In general terms: Calcium flux is commonly read through the fluorescence of an indicator in the cells.

As to `Cc1cc2nccc(=O)n2nc1N1CCc2ncc(N3CCOC(c4ccncc4)C3)cc2C1` (stereo not shown) [Compound 2-93, 8-methyl-7-(3-(2-(pyridin-4-yl)morpholino)-7,8-dihydro-1,6-naphthyridin-6(5H)-yl)-4H-pyrimido[1,2-b]pyridazin-4-one], the maximal effect (Emax) (in general, the maximal effect, on the per cent scale that the assay sets) at 30 µM came out at 75% and the EC50 (as a rule, the midpoint of the concentration-response curve) is 1170 nM.
On the same counts, the results for `Cc1c(N2CCc3ncc(-c4cncc(C#N)c4)cc3C2)nn2c(=O)ccnc2c1C` [Compound 1-223, 5-(6-(8,9-dimethyl-4-oxo-4H-pyrimido[1,2-b]pyridazin-7-yl)-5,6,7,8-tetrahydro-1,6-naphthyridin-3-yl)nicotinonitrile] are 64% and 618 nM.
Turning to `COc1ccncc1-c1cnc2c(c1)CN(c1nn3c(=O)cc(C(F)F)nc3c(C)c1C)CC2` [Compound 1-190, 2-(difluoromethyl)-7-(3-(4-methoxypyridin-3-yl)-7,8-dihydro-1,6-naphthyridin-6(5H)-yl)-8,9-dimethyl-4H-pyrimido[1,2-b]pyridazin-4-one], the Emax at 30 µM worked out at 77% and the EC50 turned out to be 156 nM.
On the same counts, the results for `Cc1cc2nccc(=O)n2nc1N1CCc2ncc(-c3cccc(Cl)c3C)cc2C1` [Compound 1-441, 7-(3-(3-chloro-2-methylphenyl)-7,8-dihydro-1,6-naphthyridin-6(5H)-yl)-8-methyl-4H-pyrimido[1,2-b]pyridazin-4-one] are 78% and 606 nM.
For the compound `Cc1cc(=O)n2nc(N3CCc4ncc(N5CCOC(C)(C)C5)cc4C3)c(C)c(C)c2n1` [Compound 2-39, 7-(3-(2,2-dimethylmorpholino)-7,8-dihydro-1,6-naphthyridin-6(5H)-yl)-2,8,9-trimethyl-4H-pyrimido[1,2-b]pyridazin-4-one], the Emax at 30 µM turned out to be 96% and the EC50 was determined as 123 nM.
For `Cc1cncc(-c2cnc3c(c2)CN(c2nn4c(=O)cc(C)nc4cc2C)CC3)c1` [Compound 1-289, 2,8-dimethyl-7-(3-(5-methylpyridin-3-yl)-7,8-dihydro-1,6-naphthyridin-6(5H)-yl)-4H-pyrimido[1,2-b] pyridazin-4-one], the maximum response (Emax) at 30 µM turned out to be 70% and the EC50 stood at 4550 nM.
On the same counts, the results for `Cc1cc2nccc(=O)n2nc1N1CCc2ncc(Nc3cnccc3Cl)cc2C1` [Compound 2-135, 7-(3-((4-chloropyridin-3-yl)amino)-7,8-dihydro-1,6-naphthyridin-6(5H)-yl)-8-methyl-4H-pyrimido[1,2-b]pyridazin-4-one] are 96% and 112 nM.
For the compound `Cc1ccncc1-c1cnc2c(c1)CN(c1nn3c(=O)ccnc3cc1C)CC2` [Compound 1-403, 8-methyl-7-(3-(4-methylpyridin-3-yl)-7,8-dihydro-1,6-naphthyridin-6(5H)-yl)-4H-pyrimido[1,2-b] pyridazin-4-one], the Emax at 30 µM was determined as 86% and the EC50 is 112 nM.
The like results for `COCc1cc(=O)n2nc(N3CCc4ncc(-c5cnc(F)cc5C)cc4C3)c(C)c(C)c2n1` [Compound 1-229, 7-(3-(6-fluoro-4-methylpyridin-3-yl)-7,8-dihydro-1,6-naphthyridin-6(5H)-yl)-2-(methoxymethyl)-8,9-dimethyl-4H-pyrimido[1,2-b]pyridazin-4-one] were, in that order, 90% and 48 nM.
The like results for `Cc1cc2nccc(=O)n2nc1N1CCc2ncc(-n3cccn3)cc2C1` [Compound 2-6, 7-(3-(1H-pyrazol-1-yl)-7,8-dihydro-1,6-naphthyridin-6(5H)-yl)-8-methyl-4H-pyrimido[1,2-b]pyridazin-4-one] were, in that order, 65% and 1170 nM.
The like results for `Cc1cc2nc(C(F)F)cc(=O)n2nc1N1CCc2ncc(N3CCCn4nccc43)cc2C1` [Compound 2-14, 2-(difluoromethyl)-7-(3-(6,7-dihydropyrazolo[1,5-a]pyrimidin-4(5H)-yl)-7,8-dihydro-1,6-naphthyridin-6(5H)-yl)-8-methyl-4H-pyrimido[1,2-b]pyridazin-4-one] were, in that order, 88% and 22 nM.
For the compound `Cc1c(N2CCc3ncc(-c4cnn(C)c4)cc3C2)nn2c(=O)ccnc2c1C` [Compound 1-62, 8,9-dimethyl-7-(3-(1-methyl-1H-pyrazol-4-yl)-7,8-dihydro-1,6-naphthyridin-6(5H)-yl)-4H-pyrimido[1,2-b]pyridazin-4-one], the maximum response (Emax) at 30 µM turned out to be 89% and the EC50 came to 128 nM.
In the case of `Cc1cc(=O)n2nc(N3CCc4ncc(-c5ccncc5)cc4C3)c(C)cc2n1` [Compound 1-240, 2,8-dimethyl-7-(3-(pyridin-4-yl)-7,8-dihydro-1,6-naphthyridin-6(5H)-yl)-4H-pyrimido[1,2-b]pyridazin-4-one], the Emax at 30 µM was 86% and the half-maximal effective concentration (EC50) worked out at 284 nM.
On the same counts, the results for `Cc1cc(=O)n2nc(N3CCc4ncc(-c5cc(F)ccc5F)cc4C3)c(C)cc2n1` [Compound 1-236, 7-(3-(2,5-difluorophenyl)-7,8-dihydro-1,6-naphthyridin-6(5H)-yl)-2,8-dimethyl-4H-pyrimido[1,2-b]pyridazin-4-one] are 87% and 1600 nM.
On the same counts, the results for `Cc1ccccc1-c1cnc2c(c1)CN(c1nn3c(=O)ccnc3cc1C)CC2` [Compound 1-431, 8-methyl-7-(3-(o-tolyl)-7,8-dihydro-1,6-naphthyridin-6(5H)-yl)-4H-pyrimido[1,2-b] pyridazin-4-one] are 96% and 130 nM.
The like results for `Cc1cc2nccc(=O)n2nc1N1CCc2ncc(N3CC(C)(C)Oc4ccccc43)cc2C1` [Compound 2-51, 7-(3-(2,2-dimethyl-2,3-dihydro-4H-benzo[b][1,4]oxazin-4-yl)-7,8-dihydro-1,6-naphthyridin-6(5H)-yl)-8-methyl-4H-pyrimido[1,2-b]pyridazin-4-one] were, in that order, 80% and 125 nM.
In the case of `Cc1cc(=O)n2nc(N3CCc4ncc(-c5cncc(C(F)(F)F)c5)cc4C3)c(C)c(C)c2n1` [Compound 1-124, 2,8,9-trimethyl-7-(3-(5-(trifluoromethyl)pyridin-3-yl)-7,8-dihydro-1,6-naphthyridin-6(5H)-yl)-4H-pyrimido[1,2-b]pyridazin-4-one], the Emax at 30 µM came out at 84% and the EC50 was 3410 nM.
The like results for `Cc1cc2nc(C(F)F)cc(=O)n2nc1N1CCc2ncc(Nc3ccncc3F)cc2C1` [Compound 2-159, 2-(difluoromethyl)-7-(3-((3-fluoropyridin-4-yl)amino)-7,8-dihydro-1,6-naphthyridin-6(5H)-yl)-8-methyl-4H-pyrimido[1,2-b]pyridazin-4-one] were, in that order, 94% and 1 nM.
In the case of `Cc1cc2nccc(=O)n2nc1N1CCc2ncc(NS(=O)(=O)C3CC3)cc2C1` [Compound 2-118, N-(6-(8-methyl-4-oxo-4H-pyrimido[1,2-b]pyridazin-7-yl)-5,6,7,8-tetrahydro-1,6-naphthyridin-3-yl)cyclopropanesulfonamide], the maximal effect (Emax) at 30 µM was 48% and the half-maximal effective concentration (EC50) was determined as 3050 nM.
The like results for `Cc1cc2nccc(=O)n2nc1N1CCc2ncc(-c3ccc(OC(F)F)nc3)cc2C1` [Compound 1-315, 7-(3-(6-(difluoromethoxy)pyridin-3-yl)-7,8-dihydro-1,6-naphthyridin-6(5H)-yl)-8-methyl-4H-pyrimido[1,2-b]pyridazin-4-one] were, in that order, 71% and 448 nM.
